Source: patent US4124577A, “Nonapeptides and methods for their production” (Warner-Lambert, priority 1977, dated 1978)

Tested on: LRF (luteinizing hormone releasing factor) induced luteinizing hormone (LH) release
Experiment: In vitro LRF antagonist test in rat anterior pituitary cell cultures
Format: cell-based
Description: Nonapeptides of this invention were screened for LRF antagonist activity in vitro using rat anterior pituitary cell cultures as described by Vale et. al. [Endocrinology, 91, 562 (1972)]. The inhibition of LRF (luteinizing hormone releasing factor) induced luteinizing hormone (LH) release into the culture medium is the endpoint in this in vitro bioassay.

Substance	LH released into culture medium (compound molar conc. 1×10^-7, LH released into culture medium, LRF control 5×10^-10) [ng/mL]	% LH Release Inhibition (compound molar conc. 1×10^-7, LRF control 5×10^-10) [%]	LH released into culture medium (compound molar conc. 1×10^-8, LH released into culture medium, LRF control 5×10^-10) [ng/mL]	% LH Release Inhibition (compound molar conc. 1×10^-8, LRF control 5×10^-10) [%]	LH released into culture medium (LRF alone, molar conc. 5×10^-10 (saline control 16.22)) [ng/mL]
N^α -t-butoxycarbonyl-N^im -benzyl-L-histidyl-L-tryptophyl-O-benzyl-L-seryl-O-benzyl-L-tyrosyl-D-phenylalanyl-L-leucyl-N^G -[(4-methylphenyl)sulfonyl]-L-arginyl-L-prolyl-glycinamide	24.91	87	52.47	44	
LRF: luteinizing hormone releasing factor, formed in the hypothalamus, stimulates the secretion of luteinizing hormone from the anterior pituitary (QHWSYGLRPG; Gonadoliberin-1; UniProt P01148 24-33, looked up) [reference compound]					80.93
